Experimental data taken from patent US4308210A, “Nanaomycin B and therapeutic compositions containing same” (The Kitasato Institute, priority 1976, dated 1981).
Converted amounts (≈) assume the structure as drawn. “Also recorded” adds a separate entry of the source.

How the values were obtained:
[1] = Conversion of nanaomycin B into nanaomycin A depending on pH; type: physicochemical
Protocol: Nanaomycin B (200 mg) is dissolved in 60 ml of 0.1 N sodium hydroxide and the solution is allowed to stand for 10 minutes. After adjusting to pH 2.0 with 6 N hydrochloric acid, the product is extracted with ethyl acetate. The extract is evaporated and orange yellow needles are obtained from an ethanol solution of the product. The compound is identified as nanaomycin A by the melting point, IR spectrum and thin-layer chromatography.

[2] = tested on: Aspergillus fumigatus IAM 2612; experiment: Antimicrobial spectrum, MIC, potato agar; type: cell-based; details: IAM2612, 96 h, potato agar (pH 6.4, 4 days, 27° C.)
mycoplasma [3] = experiment: Antimycoplasma activity, paper disc method; type: cell-based
Protocol: Inhibitory zone is assayed by paper disc method (Eiken PPLO agar, pH 7.8,

Mycoplasma gallisepticum = experiment: Therapeutic effect on chronic respiratory disease of chickens; type: in vivo
[4] = tested on: Bacillus subtillis PCI 219; experiment: Antimicrobial spectrum, MIC, nutrient agar; type: cell-based; details: PCI219, 48 h, nutrient agar (pH 7.0, 2 days, 37° C.)
Piricularia oryzae = experiment: microbe, parasite or virus in culture; type: cell-based; details: 96 h, pH 6.4
Trichophyton ferrugineum [5] = experiment: Antimicrobial spectrum, MIC, potato agar; type: cell-based; details: Microsporum ferrugineum, 96 h; potato agar (pH 6.4, 4 days, 27° C.)
Trichophyton purpureum = experiment: Antimicrobial spectrum, MIC, potato agar; type: cell-based; details: 96 h, potato agar (pH 6.4, 4 days, 27° C.)
mycoplasma [6] = experiment: Activity against mycoplasma; type: cell-based; details: in words
Protocol: H Hokken PPLO agar (pH 7.8, 8 days, 37° C.)
E Eiken PPLO agar (pH 7.8, 8 days, 37° C.)
(§1) MIC Minimal inhibitory concentration

Trichophyton asteroides [7] = experiment: Antimicrobial spectrum, MIC, potato agar; type: cell-based; details: 96 h, potato agar (pH 6.4, 4 days, 27° C.)
Shigella flexneri = experiment: Antimicrobial spectrum, MIC, nutrient agar; type: cell-based; details: 48 h, nutrient agar (pH 7.0, 2 days, 37° C.)
Protocol: (§2) Medium N nutrient agar (pH 7.0, 2 days, 37° C.)
as §1

Salmonella typhimurium = experiment: Antimicrobial spectrum, MIC, nutrient agar; type: cell-based; details: Salmonella enterica, 48 h, nutrient agar (pH 7.0, 2 days, 37° C.)
Protocol: as §2, §1

Escherichia coli NIHJ = experiment: Antimicrobial spectrum, MIC, nutrient agar; type: cell-based; details: 48 h, nutrient agar (pH 7.0, 2 days, 37° C.)
Protocol: as §2, §1

[8] = tested on: Klebsiella pneumoniae PCI 602; experiment: Antimicrobial spectrum, MIC, nutrient agar; type: cell-based; details: PCI602, 48 h, nutrient agar (pH 7.0, 2 days, 37° C.)
Protocol: as §2, §1

Mycobacterium smegmatis = experiment: Antimicrobial spectrum, MIC, nutrient agar; type: cell-based; details: Mycolicibacterium smegmatis, 48 h; nutrient agar (pH 7.0, 2 days, 37° C.)
Protocol: as §2, §1

Solubility = type: physicochemical
Aspergillus fumigatus = experiment: Antifungal activity, agar dilution method; type: cell-based; details: Aspergillus fumigatus, 96 h, potato agar, pH 6.4, 27° C., 4 days, read-out: Minimal Inhibitory Con.
Protocol: (§3) Minimal inhibitory concentration is assayed by agar dilution method
(§4) (potato agar, pH 6.4, 27° C., 4 days)

Saccharomyces sake = experiment: Antifungal activity, agar dilution method; type: cell-based; details: Saccharomyces, 96 h, potato agar, pH 6.4, 27° C., 4 days, read-out: Minimal Inhibitory Con.
Protocol: as §3, §4

Aspergillus niger = experiment: Antifungal activity, agar dilution method; type: cell-based; details: Aspergillus niger, 96 h, potato agar, pH 6.4, 27° C., 4 days, read-out: Minimal Inhibitory Con.
Protocol: as §3, §4

Candida albicans [9] = experiment: Antifungal activity, agar dilution method; type: cell-based; details: Candida albicans, 96 h, potato agar, pH 6.4, 27° C., 4 days, read-out: Minimal Inhibitory Con.
Protocol: as §3, §4

Trichophyton rubrum = experiment: Antifungal activity, agar dilution method; type: cell-based; details: Trichophyton rubrum, 96 h, potato agar, pH 6.4, 27° C., 4 days, read-out: Minimal Inhibitory Con.
Protocol: as §3, §4

[10] = tested on: Trichophyton interdigitale; experiment: Antifungal activity, agar dilution method; type: cell-based; details: Trichophyton interdigitale, 96 h, potato agar, pH 6.4, 27° C., 4 days, read-out: Minimal Inhibitory Con.
Protocol: as §3, §4

Trichophyton asteroides [11] = experiment: Antifungal activity, agar dilution method; type: cell-based; details: Trichophyton, 96 h, potato agar, pH 6.4, 27° C., 4 days, read-out: Minimal Inhibitory Con.
Protocol: as §3, §4

Trichophyton schoenleini = experiment: Antifungal activity, agar dilution method; type: cell-based; details: Trichophyton, 96 h, potato agar, pH 6.4, 27° C., 4 days, read-out: Minimal Inhibitory Con.
Protocol: as §3, §4

Microsporum gypseum = experiment: Antifungal activity, agar dilution method; type: cell-based; details: Nannizzia gypsea, 96 h, potato agar, pH 6.4, 27° C., 4 days, read-out: Minimal Inhibitory Con.
Protocol: as §3, §4

Trichophyton ferrugineum [12] = experiment: Antifungal activity, agar dilution method; type: cell-based; details: Microsporum ferrugineum, 96 h, potato agar, pH 6.4, 27° C., 4 days, read-out: Minimal Inhibitory Con.
Protocol: as §3, §4

Trichophyton violaceum = experiment: Antifungal activity, agar dilution method; type: cell-based; details: Trichophyton violaceum, 96 h, potato agar, pH 6.4, 27° C., 4 days, read-out: Minimal Inhibitory Con.
Protocol: as §3, §4

[13] = Activity of nanaomycin B itself; details: in words
Candida albicans [14] = experiment: Antimicrobial spectrum, MIC, potato agar; type: cell-based; details: 96 h, potato agar (pH 6.4, 4 days, 27° C.)
Sarcina lutea PCI 1001 = experiment: Antimicrobial spectrum, MIC, nutrient agar; type: cell-based; details: Micrococcus luteus, PCI1001, 48 h; nutrient agar (pH 7.0, 2 days, 37° C.)
[15] = tested on: various fungi of some species belonging to the genus Trichophyton; experiment: Growth inhibition of fungi of the genus Trichophyton (text summary of Table 1); type: cell-based
Trichophyton pedis 804 = experiment: Antimicrobial spectrum, MIC, potato agar; type: cell-based; details: Trichophyton pedis, 804, 96 h; potato agar (pH 6.4, 4 days, 27° C.)

With CC1OC(CC(=O)O)CC2C(=O)c3cccc(O)c3C(=O)C12O (stereo not shown) [Nanaomycin B] the “conversion into nanaomycin A in an acidic or neutral condition” value ([1]; acidic or neutral condition) was “gradually converted”, the “conversion into nanaomycin A in an alkaline condition” value ([1]; alkaline condition) was “easily converted into nanaomycin A” and the MIC [2] was over 100 µg/mL. For the same compound, the zone of inhibition at 10 µg/mL (mycoplasma [3]; Mycoplasma, 24 h, 10 μg/ml, Eiken PPLO agar, pH 7.8, 37° C., 1 day, read-out: Inhibitory Zone) was 22.7 mm, the zone of inhibition at 100 µg/mL (mycoplasma [3]; Mycoplasma, 24 h, 100 μg/ml, Eiken PPLO agar, pH 7.8, 37° C., 1 day, read-out: Inhibitory Zone) was 32.6 mm and the “antimycoplasma activity compared with ethylkalafunginate and deoxyfrenolicin” value (mycoplasma [3]; in words) was “superior”. For the same compound, the “therapeutic effect on chronic respiratory disease” value (Mycoplasma gallisepticum) was “therapeutic effect”, the MIC [4] was 7.8 µg/mL (≈ 24.4 µM) and the MIC (Piricularia oryzae) was 15.6 µg/mL (≈ 48.7 µM). The MIC (Trichophyton ferrugineum [5]) was 12.5 µg/mL (≈ 39 µM), the MIC (Trichophyton purpureum) was 25 µg/mL (≈ 78.1 µM) and the activity against mycoplasma (mycoplasma [6]) was “high activity; also recorded: especially strong activity”. For the same compound, the MIC (Trichophyton asteroides [7]) was 12.5 µg/mL (≈ 39 µM), the MIC (Shigella flexneri) was 62.5 µg/mL (≈ 195 µM) and the MIC (Salmonella typhimurium) was 62.5 µg/mL (≈ 195 µM). The MIC (Escherichia coli NIHJ) was 15.6 µg/mL (≈ 48.7 µM), the MIC [8] was 31.3 µg/mL (≈ 97.7 µM) and the MIC (Mycobacterium smegmatis) was 125 µg/mL (≈ 390 µM). For the same compound, the “Solubility in methanol, ethanol, ethylacetate, chloroform, acetone and ether” value (Solubility) was “Easily soluble”, the “Solubility in n-hexane, petroleum ether and water” value (Solubility) was “Insoluble” and the MIC (Aspergillus fumigatus) was 50 µg/mL (≈ 156 µM). The MIC (Saccharomyces sake) was over 100 µg/mL, the MIC (Aspergillus niger) was over 100 µg/mL and the MIC (Candida albicans [9]) was over 100 µg/mL. The MIC (Trichophyton rubrum) was 6.3 µg/mL (≈ 19.7 µM), the MIC [10] was 12.5 µg/mL (≈ 39 µM) and the MIC (Trichophyton asteroides [11]) was 12.5 µg/mL (≈ 39 µM). The MIC (Trichophyton schoenleini) was 0.4 µg/mL (≈ 1.25 µM), the MIC (Microsporum gypseum) was 12.5 µg/mL (≈ 39 µM) and the MIC (Trichophyton ferrugineum [12]) was 6.3 µg/mL (≈ 19.7 µM). The MIC (Trichophyton violaceum) was 6.3 µg/mL (≈ 19.7 µM), the “activity of nanaomycin B itself” value [13] was “no or little activity” and the MIC (Candida albicans [14]) was 31.2 µg/mL (≈ 97.4 µM). For the same compound, the MIC (Sarcina lutea PCI 1001) was 2 µg/mL (≈ 6.24 µM), the MIC ([15]; Trichophyton, 96 h, summary of Table 1, read-out: growth inhibited at a concentration) was at most 25 µg/mL and the activity on trycophyton ([15]; in words) was “active”. It also gave an MIC (Trichophyton pedis 804) of 3.1 µg/mL (≈ 9.68 µM).
